According to the NIST ThermoML archive (doi:10.1021/je0202073):
± gives the expanded uncertainty stated by the source.

Key:
[1] = excess molar enthalpy (molar enthalpy of mixing); xn = mol fraction of the nth substance listed; details: 101.3 kPa, Liquid, Calvet calorimetry
[2] = xn = mol fraction of the nth substance listed; details: 101.3 kPa, Liquid

CC(C)(C)O [2-methylpropan-2-ol] + CCOC(C)=O
Details	excess molar enthalpy [kcal/mol]	excess molar volume [m3/mol]
[1], 299.15 K, x2 = 0.0546	0.0899 ± 0.00311	–
[1], 299.15 K, x2 = 0.1163	0.178 ± 0.00359	–
[1], 299.15 K, x2 = 0.181	0.263 ± 0.00406	–
[1], 299.15 K, x2 = 0.2456	0.332 ± 0.00454	–
[1], 299.15 K, x2 = 0.3079	0.385 ± 0.00502	–
[1], 299.15 K, x2 = 0.3672	0.422 ± 0.00526	–
[1], 299.15 K, x2 = 0.4207	0.445 ± 0.0055	–
[1], 299.15 K, x2 = 0.4707	0.459 ± 0.00574	–
[1], 299.15 K, x2 = 0.5157	0.464 ± 0.00574	–
[1], 299.15 K, x2 = 0.5541	0.462 ± 0.00574	–
[1], 299.15 K, x2 = 0.564	0.46 ± 0.00574	–
[1], 299.15 K, x2 = 0.6199	0.444 ± 0.0055	–
[1], 299.15 K, x2 = 0.68	0.413 ± 0.00526	–
[1], 299.15 K, x2 = 0.7438	0.365 ± 0.00502	–
[1], 299.15 K, x2 = 0.8091	0.299 ± 0.0043	–
[1], 299.15 K, x2 = 0.8769	0.212 ± 0.00382	–
[1], 299.15 K, x2 = 0.9385	0.117 ± 0.00335	–
[1], 318.15 K, x2 = 0.0538	0.0799 ± 0.00311	–
[1], 318.15 K, x2 = 0.1146	0.164 ± 0.00335	–
[1], 318.15 K, x2 = 0.1733	0.24 ± 0.00382	–
[1], 318.15 K, x2 = 0.2313	0.307 ± 0.0043	–
[1], 318.15 K, x2 = 0.2953	0.361 ± 0.00478	–
[1], 318.15 K, x2 = 0.3487	0.396 ± 0.00502	–
[1], 318.15 K, x2 = 0.3987	0.422 ± 0.00526	–
[1], 318.15 K, x2 = 0.4461	0.438 ± 0.0055	–
[1], 318.15 K, x2 = 0.4878	0.445 ± 0.0055	–
[1], 318.15 K, x2 = 0.5176	0.448 ± 0.0055	–
[1], 318.15 K, x2 = 0.5676	0.444 ± 0.0055	–
[1], 318.15 K, x2 = 0.6236	0.429 ± 0.0055	–
[1], 318.15 K, x2 = 0.6844	0.398 ± 0.00502	–
[1], 318.15 K, x2 = 0.7436	0.352 ± 0.00478	–
[1], 318.15 K, x2 = 0.8108	0.285 ± 0.0043	–
[1], 318.15 K, x2 = 0.8797	0.198 ± 0.00359	–
[1], 318.15 K, x2 = 0.9442	0.104 ± 0.00311	–
[2], 303.15 K, x2 = 0.0458	–	1.14e-06 ± 7e-08
[2], 303.15 K, x2 = 0.0972	–	2.65e-06 ± 8e-08
[2], 303.15 K, x2 = 0.1702	–	4.43e-06 ± 9e-08
[2], 303.15 K, x2 = 0.1982	–	4.99e-06 ± 8e-08
[2], 303.15 K, x2 = 0.2483	–	5.78e-06 ± 9e-08
[2], 303.15 K, x2 = 0.2718	–	6.12e-06 ± 9e-08
[2], 303.15 K, x2 = 0.3074	–	6.6e-06 ± 9e-08
[2], 303.15 K, x2 = 0.3613	–	7.08e-06 ± 1e-07
[2], 303.15 K, x2 = 0.3973	–	7.3e-06 ± 1e-07
[2], 303.15 K, x2 = 0.4626	–	7.52e-06 ± 1e-07
[2], 303.15 K, x2 = 0.5178	–	7.55e-06 ± 1e-07
[2], 303.15 K, x2 = 0.5274	–	7.54e-06 ± 1e-07
[2], 303.15 K, x2 = 0.5449	–	7.51e-06 ± 1e-07
[2], 303.15 K, x2 = 0.5624	–	7.48e-06 ± 1e-07
[2], 303.15 K, x2 = 0.5722	–	7.42e-06 ± 1e-07
[2], 303.15 K, x2 = 0.5885	–	7.35e-06 ± 1e-07
[2], 303.15 K, x2 = 0.5998	–	7.3e-06 ± 1e-07
[2], 303.15 K, x2 = 0.6022	–	7.27e-06 ± 1e-07
[2], 303.15 K, x2 = 0.6086	–	7.2e-06 ± 1e-07
[2], 303.15 K, x2 = 0.6124	–	7.17e-06 ± 1e-07
[2], 303.15 K, x2 = 0.6336	–	7.06e-06 ± 1e-07
[2], 303.15 K, x2 = 0.6501	–	6.87e-06 ± 1e-07
[2], 303.15 K, x2 = 0.7084	–	6.24e-06 ± 9e-08
[2], 303.15 K, x2 = 0.7732	–	5.29e-06 ± 9e-08
[2], 303.15 K, x2 = 0.8111	–	4.6e-06 ± 8e-08
[2], 303.15 K, x2 = 0.8533	–	3.72e-06 ± 8e-08
[2], 303.15 K, x2 = 0.8915	–	2.84e-06 ± 8e-08
[2], 303.15 K, x2 = 0.9686	–	8.6e-07 ± 7e-08
[2], 318.15 K, x2 = 0.0796	–	2.37e-06 ± 7e-08
[2], 318.15 K, x2 = 0.1377	–	3.7e-06 ± 8e-08
[2], 318.15 K, x2 = 0.1899	–	4.83e-06 ± 9e-08
[2], 318.15 K, x2 = 0.2558	–	6.14e-06 ± 1e-07
[2], 318.15 K, x2 = 0.2985	–	6.84e-06 ± 1e-07
[2], 318.15 K, x2 = 0.3703	–	7.44e-06 ± 1e-07
[2], 318.15 K, x2 = 0.4344	–	7.86e-06 ± 1e-07
[2], 318.15 K, x2 = 0.4633	–	7.93e-06 ± 1e-07
[2], 318.15 K, x2 = 0.5377	–	7.95e-06 ± 1.1e-07
[2], 318.15 K, x2 = 0.5626	–	7.87e-06 ± 1e-07
[2], 318.15 K, x2 = 0.6284	–	7.55e-06 ± 1e-07
[2], 318.15 K, x2 = 0.6913	–	7e-06 ± 1e-07
[2], 318.15 K, x2 = 0.767	–	5.96e-06 ± 9e-08
[2], 318.15 K, x2 = 0.8516	–	4.18e-06 ± 8e-08
[2], 318.15 K, x2 = 0.8891	–	3.61e-06 ± 8e-08
[2], 318.15 K, x2 = 0.9294	–	2.37e-06 ± 8e-08
